Test results published in paper PMC11314343, “Improving the Solubility, Stability, and Bioavailability of Albendazole through Synthetic Salts” (Molecules, 2024).
Converted amounts (≈) assume the structure as drawn.

Legend:
[1] = Intrinsic dissolution rate (IDR); type: physicochemical; details: 37 °C
Description: The powdered sample (140 mg) was measured and compacted to a tablet hardness of 5 Kg by a tester, employing a small manual tablet press. […] Then, 0.3 mL of the solution was withdrawn, at 1 min intervals, and subsequently subjected to centrifugation (15,000 rpm, 3 min). Afterward, it was subjected to double dilution with methanol and analyzed for the presence of the drug using HPLC.

[2] = Pharmacokinetic comparison in Wistar rats after oral administration
Description: In vivo pharmacokinetic examination of albendazole and albendazole salts was performed in a half-male and half-female group of Wistar rats (n = 6), with an average body weight of 200 ± 20 g. The rats were fasted for one night before administration of albendazole at a dose of 25 mg/kg by gavage. Blood sampling was conducted by placing a jugular vein catheter surgically the day before administration. […] The tubes were centrifuged at 13,000× g for 10 min, and the upper plasma was collected and stored in an ultra-low-temperature freezer at −80 °C. Samples were processed by obtaining 100 μL of plasma; then, 400 μL of methanol was added, the samples were vortexed for 1 min, and they were centrifuged at 13,000× g for 5 min. Finally, 300 μL of the supernatant was obtained. A mixture of 6 μL of 10 μG/mL toluidazole internal standard solution was added to the supernatant. After 1 min of vortexing, the samples were centrifuged at 13,000× g for 5 min. The supernatant was then filtered through a microporous filter membrane before employing UPLC-HR-ESI-MS to assess the drug content.
The plasma concentrations of ABZ were assessed using a Dionex Ultimate 3000 RSLC system (Thermo Fisher, Waltham, MA, USA) equipped with an ACQUITY UPLC BEH C18 Column (130 Å, 150 mm × 2.1 mm × 2.6 μm) at a column temperature of 30 ± 1 °C. […] The MS analysis was conducted using a Q-Orbitrap MS coupled with heated electrospray ionization (HESI, Washington, DC, USA). The MS analysis was performed in full MS-ddMS^2 mode, with damping gas in the C-trap and nitrogen used to stabilize the spray. The auxiliary gas heater and capillary temperatures were established and maintained at 350 °C and 320 °C, respectively. In the negative mode, a spray voltage of 3.0 kV and an S-lens RF level of 60 V were employed. The full MS-ddMS^2 scan range was from 150.0000 to 1000.0000 m/z, and the precise molecular weight […] was employed for qualitative analysis. The corresponding peak area was utilized for quantitative analysis, and the MS^2 fragments were employed in further qualitative analysis.
The pharmacokinetic parameters were examined through non-compartment model analysis using DAS 2.0.

[3] = Solid-state stability, influencing factor testing (strong light, high humidity, elevated temperature); type: physicochemical; details: for stability under influencing factor conditions: 4500 ± 500 lux; for stability under influencing factor conditions / crystal transformation (PXRD): 92.5 ± 5% RH, 50 ± 2 °C; for crystal transformation (PXRD): strong light 4500 ± 500 lux, 0, 5, 10 days; for change of IDR on the 5th and 10th days compared to day 0: strong light, high humidity and high temperature
Description: Influencing factor testing included a strong light irradiation test, a high-humidity test, and an elevated temperature test. The strong light irradiation test involved placement of the sample opening under a light with an intensity of 4500 ± 500 lux. The high-humidity test involved placement of the sample in a constant-humidity container at 25 °C and 92.5% RH (saturated potassium nitrate solution). The high-temperature test involved placing the sample in a DHG-9070A constant-temperature oven (Shanghai Yiheng Technology Instrument Co., Ltd., Shanghai, China), set at 50 °C. Samples were taken on the 0th, 5th, and 10th days, and the crystal structure and dissolution of the samples were assessed for significant differences based on PXRD and IDR, as outlined above.

[4] = set-up: method as in PMID 12527162; details: cited from earlier work
[5] = water at 25 °C; cited from earlier work
[6] = Dynamic vapor sorption (DVS), moisture adsorption isotherms; type: physicochemical; details: for water adsorption: 25 °C, at 90% RH
Description: The moisture sorption characteristics of all specimens were assessed at a temperature of 25 °C using an automated dynamic vapor sorption analyzer (Surface Measurement Systems, Wembley, UK). Prior to the sorption examination, the samples were equilibrated at a humidity level of 0% relative humidity (RH) to remove any adsorbed moisture. The specimens underwent a gradual variation in relative humidity, transitioning from 0 to 90% RH at intervals of 10% RH. Humidity was adjusted by increasing it by +10% RH after 6 h or upon achieving the equilibrium condition. The equilibrium condition was met when there was a <0.002% change in mass per minute within a span of 10 min. Upon completion of the sorption sequence, all samples were subjected to drying at 0% RH, which was stopped when the Δm/Δt was less than 0.002%/min within 10 min.

[7] = set-up: method as in PMID 18938096; details: cited from earlier work
[8] = Accelerated stability testing; type: physicochemical; details: for stability under accelerated test conditions: 40 °C/75 ± 5% RH; for PXRD spectra under accelerated stability conditions: 40 ± 2 °C/75 ± 5% RH, 0, 3, 6 months
Description: Accelerated testing was utilized to contrast the stability of ABZ and its salts in the solid state. The solid variations were placed in an airtight container at 40 ± 2 °C with a humidity level of 75 ± 5% RH, and specimens were harvested at the intervals of 0, 3, and 6 months. PXRD analysis was used to ascertain whether there were any substantial alterations in dissolution properties and the crystal structure of the sample.

[9] = both, Wistar, rat, plasma, po, 25 mg/kg
[10] = Wistar rats, oral 25 mg/kg, plasma ABZ

Row | SMILES | IDR ([1]; pH 2 buffer) [mg·cm^−2·min^−1] | IDR ([1]; pH 7.4 buffer) [mg·cm^−2·min^−1] | water adsorption [6] [%] | Cmax increase compared to ABZ ([2]; Wistar rats, oral 25 mg/kg) | MRT(0–24) ([2]; Wistar rats, oral 25 mg/kg) [h] | MRT(0–∞) ([2]; Wistar rats, oral 25 mg/kg) [h] | T1/2 ([2]; Wistar rats, oral 25 mg/kg) [h] | Tmax ([2]; Wistar rats, oral 25 mg/kg) [h] | AUC(0–24) [2, 10] [ng/mL/h] | AUC(0–∞) [2, 10] [ng/mL/h] | Cmax [2, 10] [ng/mL] | stability under influencing factor conditions [3] | crystal transformation (PXRD) [3] | change of IDR on the 5th and 10th days compared to day 0 [3] | stability under accelerated test conditions [8] | PXRD spectra under accelerated stability conditions [8] | other results
1 | CCCSc1ccc2nc(NC(=O)OC)[nH]c2c1 [ABZ, Albendazole] | 0.0096 | 0.0004 | 3.86 |  |  |  |  |  |  |  |  |  |  |  |  |  | half-life ([2]; both, Wistar, rat, in vivo, po, 25 mg/kg): 5.98 ± 3.27 h; AUC(0-inf) [2, 9]: 374 ± 136 ng·h/mL; AUC(0-t) [2, 9]: 352 ± 147 ng·h/mL; Cmax [2, 9]: 69.6 ± 51.7 ng/mL; MRT inf [2, 9]: 9.19 ± 5.1 h; MRT last [2, 9]: 7.07 ± 2.27 h; Tmax [2, 9]: 2.54 ± 1.57 h; change of IDR after being placed at 50 °C ([3]; 50 °C, 5 and 10 days vs day 0): increased; log P [4]: 2.54; solubility in water [5]: 22.8 µg/mL (≈ 85.9 µM); oral bioavailability in humans [7]: less than 5%
2 | CCCSc1ccc2[nH]c(NC(=O)OC)nc2c1.O=C(O)C(O)C(O)C(=O)O [ABZ-DTA, albendazole D-tartrate] | 0.0730 | 0.0008 | 70.15 | ~4.6 times | 6.67 ± 0.61 | 8.92 ± 1.51 | 6.11 ± 1.21 | 1.25 ± 0.61 | 1835.37 ± 379.84 | 1955.94 ± 431.79 | 322.68 ± 68.67 | remained stable for 10 days | not observed | no statistically significant difference | remained stable for 6 months | unchanged | weight increase by water adsorption ([6]; sharp increase when the RH reached 60%): 47.59%
3 | CCCSc1ccc2[nH]c(NC(=O)OC)nc2c1.O=C(O)C=CC(=O)O [ABZ-FMA, albendazole fumarate] | 0.0328 | 0.0009 | 6.72 | approximately 3.8 times | 6.41 ± 0.66 | 17.53 ± 15.90 | 14.07 ± 14.37 | 1.67 ± 1.17 | 1205.56 ± 855.61 | 1975.42 ± 1856.96 | 260.58 ± 179.73 | remained stable for 10 days | not observed | no statistically significant difference | remained stable for 6 months | unchanged | 
4 | CCCSc1ccc2[nH]c(NC(=O)OC)nc2c1.Cl [ABZ-HCl, albendazole hydrochloride] | 0.1128 | 0.0041 | 37.65 | ~6.9 times | 7.66 ± 2.08 | 24.65 ± 33.76 | 16.85 ± 23.17 | 1.21 ± 0.68 | 3089.28 ± 1228.16 | 5371.96 ± 4618.85 | 478.96 ± 138.62 | remained stable for 10 days | not observed | no statistically significant difference | remained stable for 6 months | unchanged | 
